The text below walks through data of US20210128529A1, “DRUG CONTAINING PYRAZOLONE DERIVATIVE” (NOBELPHARMA CO., LTD., priority 2017, published 2021).

As a reminder, the solubility is the dissolved amount per volume that the medium holds. The low end stands for a poorly soluble substance, the high end for a readily soluble substance.

A short description of this data set: Saturation solubility of edaravone in water. Format: physicochemical.

≈ marks a conversion by molar mass, not a printed value.

`CC1=NN(c2ccccc2)C(=O)C1` [edaravone, 3-Methyl-1-phenyl-2-pyrazolin-5-one] returned a solubility of 2000 µg/mL (≈ 11.5 mM).
